Target: T1, rat hippocampal α7 nAChR (endogenous, CA1 stratum radiatum interneurons) (Rattus norvegicus, UniProt Q05941)
T1 construct: gene Chrna7; native full-length homopentamer in rat hippocampal CA1 interneurons in brain slices
Assay: whole-cell voltage clamp, choline-induced current, rat CA1 interneurons in slice
Settings: 10 mM choline puffs; antagonist; -70 mV; pH 7.4; room temperature; approximate, read from concentration-response curve; voltage-independent; native receptor, α7β2 possibly mixed; read-out: 50% inhibition of ICh

T1 sequence (Q05941 23-502): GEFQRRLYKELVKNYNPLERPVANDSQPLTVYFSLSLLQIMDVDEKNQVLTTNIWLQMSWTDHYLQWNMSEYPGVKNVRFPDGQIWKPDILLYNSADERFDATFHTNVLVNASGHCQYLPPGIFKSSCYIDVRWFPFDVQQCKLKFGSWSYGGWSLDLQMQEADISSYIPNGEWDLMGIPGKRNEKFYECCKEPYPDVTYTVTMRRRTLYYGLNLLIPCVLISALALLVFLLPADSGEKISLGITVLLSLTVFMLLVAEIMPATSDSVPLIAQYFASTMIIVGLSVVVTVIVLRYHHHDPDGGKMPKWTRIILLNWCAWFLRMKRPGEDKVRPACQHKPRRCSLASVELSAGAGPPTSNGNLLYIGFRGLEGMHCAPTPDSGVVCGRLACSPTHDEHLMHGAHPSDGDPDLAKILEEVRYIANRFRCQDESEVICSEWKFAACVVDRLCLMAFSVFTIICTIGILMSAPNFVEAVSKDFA

IC50: ~5 µM
Compound: CCCCCCCOc1ccc(OCC[N+]2(C)CCCCC2)cc1 [12a]
